# From ChEMBL document CHEMBL4002647, “BMS-933043, a Selective α7 nAChR Partial Agonist for the Treatment of Cognitive Deficits Associated with Schizophrenia” (ACS Med Chem Lett, 2017)
# What was measured:
# [1] = biological target: Neuronal acetylcholine receptor subunit alpha-7 (Rattus norvegicus, UniProt Q05941); assay: Agonist activity at rat alpha7 nAChR expressed in HEK293 cells assessed as increase in Ca2+ flux by Fluo-4 AM dye based FLIPR assay; assay type: cell-based
# [2] = Drug level treated with (2R)-N-(6-(1H-Imidazol-1-yl)-4-pyrimidinyl)-4'H-spiro[4-azabicyclo[2.2.2]octane-2,5'-[1,3]oxazol]-2'-amine
# Sequence of Neuronal acetylcholine receptor subunit alpha-7 (Q05941 whole entry): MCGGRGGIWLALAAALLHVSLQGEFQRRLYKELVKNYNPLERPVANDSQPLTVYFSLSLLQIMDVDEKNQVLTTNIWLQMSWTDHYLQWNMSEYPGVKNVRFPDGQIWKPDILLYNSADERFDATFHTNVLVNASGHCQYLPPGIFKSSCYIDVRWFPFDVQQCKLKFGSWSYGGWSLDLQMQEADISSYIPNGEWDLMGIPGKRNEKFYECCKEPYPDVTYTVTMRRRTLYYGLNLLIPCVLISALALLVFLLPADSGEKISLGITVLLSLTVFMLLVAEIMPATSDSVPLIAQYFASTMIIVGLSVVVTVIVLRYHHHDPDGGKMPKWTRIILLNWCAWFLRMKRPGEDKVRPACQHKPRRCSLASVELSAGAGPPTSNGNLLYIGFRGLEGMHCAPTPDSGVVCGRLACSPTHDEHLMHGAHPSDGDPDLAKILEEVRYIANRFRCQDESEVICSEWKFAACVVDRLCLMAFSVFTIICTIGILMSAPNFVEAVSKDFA
smiles,measurement,setting,value
"[O-][N+]12CCC(CC1)C1(CN=C(Nc3cc(-n4ccnc4)ncn3)O1)C2 (single isomer, unassigned)",EC50,[1],> 50 µM
same,Drug metabolism,[2],Metabolite detected
